Measured values from PubChem BioAssay (NCI).
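Step 1: Grow cells in 96-well plates. Step 2: Expose to compound for 48 hours at 5 concentrations. Step 3: Interpolate endpoints linearly; if unreached, use highest concentration. TGI is the concentration that stops growth completely.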

How the values were obtained:
Test in all cases: NCI anticancer screen, dose series, 48 h
[1] = test system: RXF 393 renal
[2] = test system: CAKI-1 renal
[3] = test system: SF-268 CNS
[4] = test system: U251 CNS
[5] = test system: NCI-H226 lung
[6] = test system: HL-60(TB) leukemia
[7] = test system: OVCAR-3 ovarian
[8] = test system: LOX IMVI melanoma
[9] = test system: M19-MEL melanoma
[10] = test system: SNB-75 CNS
[11] = test system: DU-145 prostate
[12] = test system: HCT-116 colon
[13] = test system: OVCAR-8 ovarian
[14] = test system: NCI-H23 lung
[15] = test system: CCRF-CEM leukemia
[16] = test system: DMS 114 small cell lung
[17] = test system: ACHN renal
[18] = test system: RXF-631 renal
[19] = test system: DLD-1 colon
[20] = test system: HCT-15 colon
[21] = test system: MDA-N
[22] = test system: MALME-3M melanoma
[23] = test system: HOP-62 NSCLC
[24] = test system: T-47D breast
[25] = test system: NCI-H522 lung
[26] = test system: OVCAR-5 ovarian
[27] = test system: UACC-257 melanoma
[28] = test system: MDA-MB-231 breast
[29] = test system: HOP-18 NSCLC
[30] = test system: SK-MEL-5 melanoma
[31] = test system: SK-MEL-2 melanoma
[32] = test system: KM12 colon
[33] = test system: A549 NSCLC
[34] = test system: COLO 205 colon
[35] = test system: SN12C renal
[36] = test system: MOLT-4 leukemia
[37] = test system: 786-0 renal
[38] = test system: HT29 colon
[39] = test system: TK-10 renal
[40] = test system: RPMI-8226 leukemia
[41] = test system: SNB-78 CNS
[42] = test system: UO-31 renal
[43] = test system: SNB-19 CNS
[44] = test system: NCI/ADR-RES ovarian
[45] = test system: KM20L2 colon
[46] = test system: HS 578T breast
[47] = test system: IGROV1 ovarian
[48] = test system: K-562 leukemia
[49] = test system: LXFL 529 NSCLC
[50] = test system: PC-3 prostate
[51] = test system: SR leukemia
[52] = test system: SF-295 CNS
[53] = test system: MCF7 breast
[54] = test system: MDA-MB-435
[55] = test system: UACC-62 melanoma
[56] = test system: OVCAR-4 ovarian
[57] = test system: BT-549 breast
[58] = test system: XF 498 CNS
[59] = test system: SK-MEL-28 melanoma
[60] = test system: M14 melanoma
[61] = test system: NCI-H460 lung
[62] = test system: SK-OV-3 ovarian
[63] = test system: DMS 273 small cell lung
[64] = test system: HCC-2998 colon
[65] = test system: SW-620 colon
[66] = test system: HOP-92 NSCLC
[67] = test system: A498 renal
[68] = test system: EKVX NSCLC
[69] = test system: SF-539 CNS

Structure (SMILES): CCN(CC)CCNc1ccc2nnn3c4ccc([N+](=O)[O-])cc4c(=O)c1c23
- TGI [1]: 18.9 µM
- TGI [2]: 27.3 µM
- TGI [3]: > 100 µM
- TGI [4]: 13 µM
- TGI [5]: 17 µM
- TGI [6]: 30.2 µM
- TGI [7]: > 100 µM
- TGI [8]: 17.9 µM
- TGI [9]: > 100 µM
- TGI [10]: 42 µM
- TGI [11]: > 100 µM
- TGI [12]: 19.7 µM
- TGI [13]: 16 µM
- TGI [14]: 98.5 µM
- TGI [15]: 44.3 µM
- TGI [16]: 97.3 µM
- TGI [17]: 55.9 µM
- TGI [18]: 28.2 µM
- TGI [19]: > 70.1 µM
- TGI [20]: > 61 µM
- TGI [21]: > 100 µM
- TGI [22]: 62.9 µM
- TGI [23]: > 71.3 µM
- TGI [24]: > 100 µM
- TGI [25]: > 100 µM
- TGI [26]: 65.1 µM
- TGI [27]: > 69.4 µM
- TGI [28]: 24.4 µM
- TGI [29]: > 100 µM
- TGI [30]: 58.7 µM
- TGI [31]: > 71.7 µM
- TGI [32]: > 100 µM
- TGI [33]: > 53.2 µM
- TGI [34]: > 100 µM
- TGI [35]: > 83.6 µM
- TGI [36]: 32 µM
- TGI [37]: 18.5 µM
- TGI [38]: > 55.5 µM
- TGI [39]: > 45 µM
- TGI [40]: 43.1 µM
- TGI [41]: 63.8 µM
- TGI [42]: 25 µM
- TGI [43]: > 100 µM
- TGI [44]: 30.7 µM
- TGI [45]: > 100 µM
- TGI [46]: 73.8 µM
- TGI [47]: > 100 µM
- TGI [48]: 32.8 µM
- TGI [49]: > 96.1 µM
- TGI [50]: > 100 µM
- TGI [51]: > 33.6 µM
- TGI [52]: > 78.4 µM
- TGI [53]: > 100 µM
- TGI [54]: > 100 µM
- TGI [55]: > 100 µM
- TGI [56]: 48.9 µM
- TGI [57]: > 100 µM
- TGI [58]: 18.3 µM
- TGI [59]: 51.1 µM
- TGI [60]: 49.7 µM
- TGI [61]: > 26.9 µM
- TGI [62]: > 100 µM
- TGI [63]: 23.5 µM
- TGI [64]: > 100 µM
- TGI [65]: 27.6 µM
- TGI [66]: 40.6 µM
- TGI [67]: 23.8 µM
- TGI [68]: > 89.7 µM
- TGI [69]: 14.9 µM

Structure (SMILES): O=C(CC1(O)C(=O)Nc2c(Cl)ccc(Cl)c21)c1ccco1 (configuration not stated)
- TGI [1]: 43.2 µM
- TGI [2]: > 72.3 µM
- TGI [3]: > 84.2 µM
- TGI [4]: > 74.4 µM
- TGI [5]: 47.5 µM
- TGI [6]: 35.1 µM
- TGI [7]: 18.7 µM
- TGI [8]: 29.4 µM
- TGI [9]: 5.33 µM
- TGI [10]: 71.7 µM
- TGI [11]: > 100 µM
- TGI [12]: 32.4 µM
- TGI [13]: > 73.8 µM
- TGI [14]: 34 µM
- TGI [15]: 26.9 µM
- TGI [16]: 33.5 µM
- TGI [17]: 38.6 µM
- TGI [18]: 65.3 µM
- TGI [19]: > 100 µM
- TGI [20]: > 70.2 µM
- TGI [21]: 12.8 µM
- TGI [22]: 34.7 µM
- TGI [23]: 66.2 µM
- TGI [24]: 72.9 µM
- TGI [25]: > 100 µM
- TGI [26]: 38.7 µM
- TGI [27]: 40.1 µM
- TGI [28]: 48.7 µM
- TGI [29]: > 100 µM
- TGI [30]: 31.7 µM
- TGI [31]: > 69.2 µM
- TGI [32]: > 78.3 µM
- TGI [33]: 49.9 µM
- TGI [34]: 33 µM
- TGI [35]: 31.8 µM
- TGI [36]: 61 µM
- TGI [37]: 46.8 µM
- TGI [38]: > 93.4 µM
- TGI [39]: > 81.6 µM
- TGI [40]: 40.8 µM
- TGI [41]: > 100 µM
- TGI [42]: 54.9 µM
- TGI [43]: > 100 µM
- TGI [44]: 74.1 µM
- TGI [45]: > 100 µM
- TGI [46]: 71.5 µM
- TGI [47]: 40 µM
- TGI [49]: 27.4 µM
- TGI [50]: > 100 µM
- TGI [51]: 14.8 µM
- TGI [52]: 40.9 µM
- TGI [53]: 39.5 µM
- TGI [54]: 3.44 µM
- TGI [55]: 19.3 µM
- TGI [56]: 24.5 µM
- TGI [57]: > 100 µM
- TGI [58]: 24.2 µM
- TGI [59]: 38.2 µM
- TGI [60]: 27.8 µM
- TGI [61]: 45.6 µM
- TGI [62]: > 74.3 µM
- TGI [63]: > 100 µM
- TGI [64]: > 88.5 µM
- TGI [65]: 56.4 µM
- TGI [66]: 49.8 µM
- TGI [67]: 64 µM
- TGI [68]: 50.5 µM
- TGI [69]: 59.7 µM
